Test results published in PubChem BioAssay AID200 (DTP/NCI, 2004).
“And” between values parts separate entries of the source, which are not always exact repeats. Equal values may be shown once. Inconclusive results and toxic doses are left out. The calls were made as follows: active = survival T/C of 150% or more; inactive = T/C below 125% in these data.

System: B6C3F1 mice, B16 melanoma ip, median survival T/C
Assay: NCI In Vivo Anticancer Drug Screen. Data for tumor model B16 Melanoma (intraperitoneal) in B6C3F1 mice
Conditions: endpoint: median survival time, schedule: Q01DX009 (ip), higher = longer survival
Protocol: The antitumor activity of compounds was measured in mice bearing transplantable tumors. Survival or tumor size were measured and the results are expressed as the measurement made in the treated group (T) divided by the measurement made in the vehicle treated control group (C). The tumor model used in this assay is B16 Melanoma (intraperitoneal) in B6C3F1 mice

[1] = dose: 25.0 mg/kg/injection, vehicle: saline with Tween-80
[2] = dose: 50.0 mg/kg/injection, vehicle: saline with Tween-80
[3] = dose: 100.0 mg/kg/injection, vehicle: saline with Tween-80
[4] = dose: 25.0 mg/kg/injection, vehicle: Klucel (hydroxypropylcellulose) (HPC)
[5] = dose: 50.0 mg/kg/injection, vehicle: Klucel (hydroxypropylcellulose) (HPC)
[6] = dose: 100.0 mg/kg/injection, vehicle: Klucel (hydroxypropylcellulose) (HPC)
[7] = dose: 200.0 mg/kg/injection, vehicle: Klucel (hydroxypropylcellulose) (HPC)
[8] = dose: 200.0 mg/kg/injection, vehicle: saline with Tween-80

Measured: T/C

CC1Nc2ccccc2NC1C (stereo not drawn)
inactive: [1] 108 % of control | [2] 98 % of control | [3] 96 % of control

COc1ccccc1Cc1c(OC)cc(OC)c(C(=O)CCc2ccccc2)c1O
inactive: dose: 4.3 mg/kg/injection, vehicle: other 101 % of control | dose: 6.4 mg/kg/injection, vehicle: other 92 % of control | dose: 9.6 mg/kg/injection, vehicle: other 89 % of control | dose: 14.0 mg/kg/injection, vehicle: other 94 % of control

COc1nc(C(Cl)(Cl)Cl)c(Cl)c(OC)c1Cl
inactive: [4] 96 % of control | [5] 104 % of control

CCOC(=O)CNC(=O)Sc1ccc(C(C)(C)C)cc1
inactive: dose: 12.5 mg/kg/injection, vehicle: Klucel (hydroxypropylcellulose) (HPC) 100 % of control | [4] 100 % of control | [5] 102 % of control | [6] 105 % of control | [7] 115 % of control

N=c1nc2n(cc1F)[C@@H]1O[C@H](CO)[C@@H](O)[C@@H]1O2
inactive: [4] 111 % of control | dose: 25.0 mg/kg/injection, vehicle: saline 110 % of control | [5] 121 % of control | dose: 50.0 mg/kg/injection, vehicle: saline 112 % of control | [6] 110 % of control | dose: 100.0 mg/kg/injection, vehicle: saline 117 % of control and 97 % of control | [7] 104 % of control | dose: 200.0 mg/kg/injection, vehicle: saline 124 % of control and 105 % of control | dose: 400.0 mg/kg/injection, vehicle: Klucel (hydroxypropylcellulose) (HPC) 117 % of control | dose: 400.0 mg/kg/injection, vehicle: saline 121 % of control

Oc1cc2ccccc2c(-c2c(O)c(O)cc3ccccc23)c1O
inactive: dose: 0.78 mg/kg/injection, vehicle: saline with Tween-80 95 % of control | dose: 1.56 mg/kg/injection, vehicle: saline with Tween-80 115 % of control | dose: 3.12 mg/kg/injection, vehicle: saline with Tween-80 99 % of control | dose: 6.25 mg/kg/injection, vehicle: saline with Tween-80 111 % of control and 93 % of control | [8] 100 % of control

O=C(NC(CO)C(=O)O)OCc1ccccc1 (stereo not drawn)
inactive: [1] 97 % of control | [2] 98 % of control | [3] 87 % of control and 102 % of control

COC1(OC)C2C=CC1CC2
inactive: dose: 12.5 mg/kg/injection, vehicle: saline with Tween-80 108 % of control and 98 % of control | [1] 101 % of control | [2] 113 % of control and 102 % of control | [3] 114 % of control and 100 % of control | [8] 100 % of control and 102 % of control | dose: 400.0 mg/kg/injection, vehicle: saline with Tween-80 98 % of control
